Assay results reported in US5008401A, “Cyanine compounds” (Asahi Chemical Co., Ltd., priority 1990, dated 1991).

Assay: Absorption maximum (λmax) and molar absorptivity (ε) in solution
Type: physicochemical
Details: diacetone alcohol
`CCCOc1cc(C)c2c(c1)C(C)(C)C(=CC=CC=CC1=[N+](CC)c3c(C)cc(OCCC)cc3C1(C)C)N2CC` [Preparation Example 8] gave a λmax of 683 nm. For `COCCN1C(=CC=CC=CC2=[N+](CCOC)c3c(OC)cc(OC)cc3C2(C)C)C(C)(C)c2cc(OC)cc(OC)c21` [Preparation Example 14], the ε was 180000 cm⁻¹ and the λmax was 695 nm. `COCN1C(=CC=CC=CC2=[N+](COC)c3cc(OC)c(OC)cc3C2(C)C)C(C)(C)c2cc(OC)c(OC)cc21` [Preparation Example 3] gave a ε of 160000 cm⁻¹ and a λmax of 702 nm. `COc1cc(C(C)C)c2c(c1)C(C)(C)C(=CC=CC=CC1=[N+](C)c3c(C(C)C)cc(OC)cc3C1(C)C)N2C` [Preparation Example 10] showed a ε of 162000 cm⁻¹ and a λmax of 681 nm. In the case of `CCc1cc(OC)cc2c1N(CC)C(=CC=CC=CC1=[N+](CC)c3c(CC)cc(OC)cc3C1(C)C)C2(C)C` [Preparation Example 9], the ε is reported as 182000 cm⁻¹ and the λmax is reported as 681 nm. For `CCCCN1C(=CC=CC=CC2=[N+](CCCC)c3cc(OC)c(OC)cc3C2(C)C)C(C)(C)c2cc(OC)c(OC)cc21` [Preparation Example 11], the ε was 162000 cm⁻¹ and the λmax was 703 nm. `COCCN1C(=CC=CC=CC2=[N+](CCOC)c3c(C)cc(OC)cc3C2(C)C)C(C)(C)c2cc(OC)cc(C)c21` [Preparation Example 5] showed a ε of 185000 cm⁻¹ and a λmax of 679 nm. `COc1cc(OC)c2c(c1)C(C)(C)C(=CC=CC=CC1=[N+](CCOC(C)=O)c3c(OC)cc(OC)cc3C1(C)C)N2CCOC(C)=O` [Preparation Example 13] showed a ε of 175000 cm⁻¹ and a λmax of 693 nm. For `CCCN1C(=CC=CC=CC2=[N+](CCC)c3cc(C)c(OC)cc3C2(C)C)C(C)(C)c2cc(OC)c(C)cc21` [Preparation Example 6], the ε was 174000 cm⁻¹ and the λmax was 683 nm. `COc1cc(C)c2c(c1)C(C)(C)C(=CC=CC=CC1=[N+](CCO)c3c(C)cc(OC)cc3C1(C)C)N2CCO` [Preparation Example 4] showed a ε of 184000 cm⁻¹ and a λmax of 679 nm.

Same assay, conditions: dichloroethane
For `CCOc1cc(C)c2c(c1)C(C)(C)C(=CC=CC=CC1=[N+](CC)c3c(C)cc(OCC)cc3C1(C)C)N2CC` [Preparation Example 7], the ε was 1.75×10^5 cm^- and the λmax was 681 nm.

Same assay, conditions: dichloromethane
Work on `CCCCN1C(=CC=CC=CC2=[N+](CCCC)c3cc(OC)c(OC)cc3C2(C)C)C(C)(C)c2cc(OC)c(OC)cc21` [Preparation Example 12] yielded a ε of 161000 cm⁻¹ and a λmax of 699 nm. In the case of `CCOc1cc(OCC)c2c(c1)C(C)(C)C(=CC=CC=CC1=[N+](CC)c3c(OCC)cc(OCC)cc3C1(C)C)N2CC` [Preparation Example 2], the ε is reported as 1.72×10^5 cm^- and the λmax is reported as 698 nm.

Assay: Test for solubility in solvent
Type: physicochemical
Details: not given
Procedure: Each of cyanine dyes as shown below in Table 2 was dissolved in methanol and the solubility was determined at room temperature with the results indicated below in Table 2.
With `CCOc1ccc2c(c1)C(C)(C)C(=CC=CC=CC=CC1=[N+](C)c3ccc(OCC)cc3C1(C)C)N2C` [Compound A, reference compound] the “solubility in solvents (in words)” value was “does not exhibit good solubility in solvents”. With `CCOc1ccc2c(c1)C(C)(C)C(=CC=CC=CC1=[N+](C)c3ccc(OCC)cc3C1(C)C)N2C` [Compound B, reference compound] the “solubility in solvents (in words)” value was “not satisfactory in solubility in solvents”.

Same assay, conditions: methanol, room temperature
In the case of `COCCN1C(=CC=CC=CC2=[N+](CCOC)c3c(OC)cc(OC)cc3C2(C)C)C(C)(C)c2cc(OC)cc(OC)c21` [Preparation Example 14], the Solubility is reported as “at least 30 g/1”. In the case of `COCN1C(=CC=CC=CC2=[N+](COC)c3cc(OC)c(OC)cc3C2(C)C)C(C)(C)c2cc(OC)c(OC)cc21` [Preparation Example 3], the Solubility is reported as “at least 30 g/1”. With `CCOc1ccc2c(c1)C(C)(C)C(=CC=CC=CC=CC1=[N+](C)c3ccc(OCC)cc3C1(C)C)N2C` [Compound A, reference compound] the Solubility was “up to 10 g/1”. With `CCOc1ccc2c(c1)C(C)(C)C(=CC=CC=CC1=[N+](C)c3ccc(OCC)cc3C1(C)C)N2C` [Compound B, reference compound] the Solubility was “up to 10 g/1”. In the case of `CCCCN1C(=CC=CC=CC2=[N+](CCCC)c3cc(OC)c(OC)cc3C2(C)C)C(C)(C)c2cc(OC)c(OC)cc21` [Preparation Example 11], the Solubility is reported as “at least 30 g/1”. With `CCCN1C(=CC=CC=CC2=[N+](CCC)c3cc(C)c(OC)cc3C2(C)C)C(C)(C)c2cc(OC)c(C)cc21` [Preparation Example 6] the Solubility was “at least 30 g/1”. With `CCN1C(=CC=CC=CC2=[N+](CC)c3c(OC)cc(OC)cc3C2(C)C)C(C)(C)c2cc(OC)cc(OC)c21` [Preparation Example 1] the Solubility was 30 g/1.
